Legend:
Type in all cases: biochemical
[1] = target: PTK2 (Homo sapiens, UniProt Q05397); test: SelectScreen kinase selectivity assay; conditions: ten-dose 0.25–128 μM
Experimental: (§1) Following the standardized kinase activity assay protocol as previously reported, we utilized the SelectScreen Kinase Profiling Service (Thermo Fisher Scientific) to determine the kinase selectivity profile of FLIN-4 ([van der Wel et al., 2020]). Through a ten-dose dilution series ranging from 0.25 μM to 128 μM in dose-response experiments, we precisely measured the inhibitory effect of FLIN-4 on the substrate phosphorylation reactions catalyzed by a panel of kinases, and thus ascertained the half-maximal inhibitory concentrations (IC50) for each kinase.

[2] = target: FES (Homo sapiens, UniProt P07332); test: SelectScreen kinase selectivity assay; conditions: ten-dose 0.25–128 μM
Experimental: as §1

[3] = target: JAK2 (Homo sapiens, UniProt O60674); test: SelectScreen kinase selectivity assay; conditions: ten-dose 0.25–128 μM
Experimental: as §1

[4] = target: FGR (Homo sapiens, UniProt P09769); test: SelectScreen kinase selectivity assay; conditions: ten-dose 0.25–128 μM
Experimental: as §1

[5] = target: RAF1 (Homo sapiens, UniProt P04049, Y340D/Y341D); test: SelectScreen kinase selectivity assay; conditions: ten-dose 0.25–128 μM
Sequence of RAF1 (P04049 306-648 Y340D/Y341D limits assumed): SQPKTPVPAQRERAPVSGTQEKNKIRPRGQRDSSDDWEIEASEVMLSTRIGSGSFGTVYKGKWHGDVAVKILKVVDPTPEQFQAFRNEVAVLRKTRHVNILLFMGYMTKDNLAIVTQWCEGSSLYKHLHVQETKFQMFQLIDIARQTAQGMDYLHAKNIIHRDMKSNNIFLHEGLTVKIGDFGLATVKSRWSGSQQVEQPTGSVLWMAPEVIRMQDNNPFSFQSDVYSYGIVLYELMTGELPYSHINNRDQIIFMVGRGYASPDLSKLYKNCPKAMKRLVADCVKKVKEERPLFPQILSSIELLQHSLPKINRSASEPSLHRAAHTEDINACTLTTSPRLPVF
Experimental: as §1

[6] = target: EPHB3 (Homo sapiens, UniProt P54753); test: SelectScreen kinase selectivity assay; conditions: ten-dose 0.25–128 μM
Experimental: as §1

[7] = target: FGFR2 (Homo sapiens, UniProt P21802); test: SelectScreen kinase selectivity assay; conditions: ten-dose 0.25–128 μM
Sequence of FGFR2 (P21802 22-821): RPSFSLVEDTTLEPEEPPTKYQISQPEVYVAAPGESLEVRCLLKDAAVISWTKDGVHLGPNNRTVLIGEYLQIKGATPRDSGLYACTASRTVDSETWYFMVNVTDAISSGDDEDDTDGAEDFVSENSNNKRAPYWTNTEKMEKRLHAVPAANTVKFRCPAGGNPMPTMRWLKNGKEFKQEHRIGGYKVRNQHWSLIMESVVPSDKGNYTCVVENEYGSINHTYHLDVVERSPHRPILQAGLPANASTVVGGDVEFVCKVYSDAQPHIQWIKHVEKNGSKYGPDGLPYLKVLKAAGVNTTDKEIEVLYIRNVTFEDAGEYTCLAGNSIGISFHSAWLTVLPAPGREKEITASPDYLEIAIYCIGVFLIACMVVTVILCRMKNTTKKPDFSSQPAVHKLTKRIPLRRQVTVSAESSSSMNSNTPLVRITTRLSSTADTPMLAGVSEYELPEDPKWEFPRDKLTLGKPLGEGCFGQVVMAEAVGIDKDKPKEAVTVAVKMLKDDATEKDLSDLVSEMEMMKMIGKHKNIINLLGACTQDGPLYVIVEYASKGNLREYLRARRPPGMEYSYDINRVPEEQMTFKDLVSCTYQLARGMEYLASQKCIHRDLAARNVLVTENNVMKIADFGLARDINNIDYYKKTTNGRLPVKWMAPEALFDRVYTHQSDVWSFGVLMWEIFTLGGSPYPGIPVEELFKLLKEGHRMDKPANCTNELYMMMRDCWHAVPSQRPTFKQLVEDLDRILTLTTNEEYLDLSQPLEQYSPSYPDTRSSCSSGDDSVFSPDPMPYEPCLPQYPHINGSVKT
Experimental: as §1

[8] = target: MST1R (Homo sapiens, UniProt Q04912); test: SelectScreen kinase selectivity assay; conditions: ten-dose 0.25–128 μM
Sequence of MST1R (Q04912 25-1400): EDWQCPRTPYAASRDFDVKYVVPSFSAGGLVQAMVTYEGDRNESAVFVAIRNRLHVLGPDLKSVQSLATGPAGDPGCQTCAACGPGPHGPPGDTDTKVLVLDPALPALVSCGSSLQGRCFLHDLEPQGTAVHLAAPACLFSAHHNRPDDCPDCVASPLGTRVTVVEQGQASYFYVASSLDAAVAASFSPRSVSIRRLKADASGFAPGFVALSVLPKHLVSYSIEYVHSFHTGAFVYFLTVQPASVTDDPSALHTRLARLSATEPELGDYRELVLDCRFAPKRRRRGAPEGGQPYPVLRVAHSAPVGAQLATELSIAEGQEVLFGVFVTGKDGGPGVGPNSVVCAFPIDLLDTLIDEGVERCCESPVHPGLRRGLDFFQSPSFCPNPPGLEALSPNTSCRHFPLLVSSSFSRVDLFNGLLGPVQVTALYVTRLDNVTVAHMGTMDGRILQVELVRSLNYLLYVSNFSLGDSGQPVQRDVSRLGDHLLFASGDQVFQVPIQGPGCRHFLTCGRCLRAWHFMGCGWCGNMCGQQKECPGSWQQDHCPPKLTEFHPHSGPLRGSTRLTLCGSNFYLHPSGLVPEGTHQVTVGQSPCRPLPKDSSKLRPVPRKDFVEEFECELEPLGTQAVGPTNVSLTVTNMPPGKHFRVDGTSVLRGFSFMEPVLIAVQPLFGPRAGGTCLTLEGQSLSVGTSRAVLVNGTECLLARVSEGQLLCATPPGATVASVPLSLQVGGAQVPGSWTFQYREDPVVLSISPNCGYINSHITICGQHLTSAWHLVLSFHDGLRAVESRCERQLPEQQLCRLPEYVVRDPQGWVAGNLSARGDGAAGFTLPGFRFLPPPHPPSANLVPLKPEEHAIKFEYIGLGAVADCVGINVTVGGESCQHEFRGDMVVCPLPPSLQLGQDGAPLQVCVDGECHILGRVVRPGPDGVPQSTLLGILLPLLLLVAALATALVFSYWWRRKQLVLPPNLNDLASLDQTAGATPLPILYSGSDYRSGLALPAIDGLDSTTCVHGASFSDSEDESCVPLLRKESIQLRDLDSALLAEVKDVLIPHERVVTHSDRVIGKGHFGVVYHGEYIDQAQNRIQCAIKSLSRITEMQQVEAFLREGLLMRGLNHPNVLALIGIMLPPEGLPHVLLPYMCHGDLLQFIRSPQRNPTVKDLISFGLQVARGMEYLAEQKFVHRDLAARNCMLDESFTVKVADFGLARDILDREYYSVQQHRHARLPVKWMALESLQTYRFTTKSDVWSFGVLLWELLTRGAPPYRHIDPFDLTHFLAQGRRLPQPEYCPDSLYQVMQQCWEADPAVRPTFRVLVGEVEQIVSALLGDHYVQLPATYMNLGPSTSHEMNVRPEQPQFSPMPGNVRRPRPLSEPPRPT
Experimental: as §1

[9] = target: FGFR3 (Homo sapiens, UniProt P22607); test: SelectScreen kinase selectivity assay; conditions: ten-dose 0.25–128 μM
Experimental: as §1

[10] = target: TYRO3 (Homo sapiens, UniProt Q06418); test: SelectScreen kinase selectivity assay; conditions: ten-dose 0.25–128 μM
Experimental: as §1

[11] = target: ROS1 (Homo sapiens, UniProt P08922); test: SelectScreen kinase selectivity assay; conditions: ten-dose 0.25–128 μM
Experimental: as §1

[12] = target: ABL1 (Homo sapiens, UniProt P00519); test: SelectScreen kinase selectivity assay; conditions: ten-dose 0.25–128 μM
Sequence of ABL1 (P00519 whole entry): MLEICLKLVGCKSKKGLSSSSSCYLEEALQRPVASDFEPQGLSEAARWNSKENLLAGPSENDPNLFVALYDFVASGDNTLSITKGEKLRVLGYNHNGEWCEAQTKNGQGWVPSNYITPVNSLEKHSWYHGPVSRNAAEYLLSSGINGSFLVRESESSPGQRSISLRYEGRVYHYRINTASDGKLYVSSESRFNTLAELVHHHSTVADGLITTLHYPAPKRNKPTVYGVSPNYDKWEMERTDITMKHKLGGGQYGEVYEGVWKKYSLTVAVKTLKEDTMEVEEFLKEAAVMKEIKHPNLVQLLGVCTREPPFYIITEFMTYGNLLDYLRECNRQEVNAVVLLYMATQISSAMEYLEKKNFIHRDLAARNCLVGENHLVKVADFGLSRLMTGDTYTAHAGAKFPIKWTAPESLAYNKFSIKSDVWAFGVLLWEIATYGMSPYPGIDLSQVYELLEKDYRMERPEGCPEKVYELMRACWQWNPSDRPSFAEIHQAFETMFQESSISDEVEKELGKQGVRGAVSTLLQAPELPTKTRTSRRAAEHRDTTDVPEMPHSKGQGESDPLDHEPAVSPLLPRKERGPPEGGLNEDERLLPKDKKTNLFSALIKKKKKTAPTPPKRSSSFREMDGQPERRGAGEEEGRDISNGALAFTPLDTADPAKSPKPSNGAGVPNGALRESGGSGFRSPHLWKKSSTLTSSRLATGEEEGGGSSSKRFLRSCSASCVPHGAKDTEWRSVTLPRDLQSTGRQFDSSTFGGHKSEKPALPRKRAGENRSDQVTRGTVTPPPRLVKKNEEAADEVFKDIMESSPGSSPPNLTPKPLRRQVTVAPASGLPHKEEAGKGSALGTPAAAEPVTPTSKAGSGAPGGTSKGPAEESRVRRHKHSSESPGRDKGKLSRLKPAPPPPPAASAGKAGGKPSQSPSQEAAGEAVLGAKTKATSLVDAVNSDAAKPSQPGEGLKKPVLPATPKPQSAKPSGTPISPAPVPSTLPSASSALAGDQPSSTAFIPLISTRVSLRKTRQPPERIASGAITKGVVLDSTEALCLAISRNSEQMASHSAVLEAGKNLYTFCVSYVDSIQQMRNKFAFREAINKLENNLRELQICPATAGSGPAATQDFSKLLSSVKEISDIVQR
Experimental: as §1

[13] = target: MUSK (Homo sapiens, UniProt O15146); test: SelectScreen kinase selectivity assay; conditions: ten-dose 0.25–128 μM
Experimental: as §1

[14] = target: EPHA5 (Homo sapiens, UniProt P54756); test: SelectScreen kinase selectivity assay; conditions: ten-dose 0.25–128 μM
Sequence of EPHA5 (P54756 25-1037): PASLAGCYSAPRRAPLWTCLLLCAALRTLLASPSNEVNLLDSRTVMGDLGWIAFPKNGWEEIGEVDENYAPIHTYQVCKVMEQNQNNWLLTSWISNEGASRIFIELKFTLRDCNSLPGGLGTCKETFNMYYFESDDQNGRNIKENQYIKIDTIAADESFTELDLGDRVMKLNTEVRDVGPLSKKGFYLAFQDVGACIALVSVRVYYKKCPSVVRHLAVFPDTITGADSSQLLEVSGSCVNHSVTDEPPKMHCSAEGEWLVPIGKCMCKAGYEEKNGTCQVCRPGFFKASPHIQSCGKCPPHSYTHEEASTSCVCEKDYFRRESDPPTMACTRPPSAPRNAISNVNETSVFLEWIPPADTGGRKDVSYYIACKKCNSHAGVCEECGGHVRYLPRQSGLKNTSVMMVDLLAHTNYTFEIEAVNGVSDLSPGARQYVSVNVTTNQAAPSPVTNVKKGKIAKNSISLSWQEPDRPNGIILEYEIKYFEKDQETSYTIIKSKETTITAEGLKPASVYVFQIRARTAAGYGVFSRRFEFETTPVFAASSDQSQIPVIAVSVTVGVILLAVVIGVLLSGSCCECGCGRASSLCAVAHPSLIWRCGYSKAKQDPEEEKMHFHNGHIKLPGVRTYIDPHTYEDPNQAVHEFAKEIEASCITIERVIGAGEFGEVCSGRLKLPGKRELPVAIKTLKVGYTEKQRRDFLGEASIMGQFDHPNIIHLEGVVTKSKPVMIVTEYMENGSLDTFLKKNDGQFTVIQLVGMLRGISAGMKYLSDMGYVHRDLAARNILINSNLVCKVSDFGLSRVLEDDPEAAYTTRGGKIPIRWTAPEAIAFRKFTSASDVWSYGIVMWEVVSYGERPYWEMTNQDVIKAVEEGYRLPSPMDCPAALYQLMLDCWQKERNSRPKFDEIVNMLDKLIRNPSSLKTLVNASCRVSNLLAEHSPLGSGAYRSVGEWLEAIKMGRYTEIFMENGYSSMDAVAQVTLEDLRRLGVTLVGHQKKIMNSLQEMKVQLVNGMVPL
Experimental: as §1

[15] = target: DDR1 (Homo sapiens, UniProt Q08345); test: SelectScreen kinase selectivity assay; conditions: ten-dose 0.25–128 μM
Experimental: as §1

[16] = target: INSRR (Homo sapiens, UniProt P14616); test: SelectScreen kinase selectivity assay; conditions: ten-dose 0.25–128 μM
Experimental: as §1

[17] = target: BTK (Homo sapiens, UniProt Q06187); test: SelectScreen kinase selectivity assay; conditions: ten-dose 0.25–128 μM
Experimental: as §1

[18] = target: EPHA8 (Homo sapiens, UniProt P29322); test: SelectScreen kinase selectivity assay; conditions: ten-dose 0.25–128 μM
Experimental: as §1

[19] = target: T1, FLT3-ITD (Homo sapiens, UniProt P36888, ITD); test: ADP-Glo kinase-inhibition assay; conditions: ADP-Glo; ATP 100 μM; FLT3-ITD 10 ng/μL
T1 sequence (P36888 27-993): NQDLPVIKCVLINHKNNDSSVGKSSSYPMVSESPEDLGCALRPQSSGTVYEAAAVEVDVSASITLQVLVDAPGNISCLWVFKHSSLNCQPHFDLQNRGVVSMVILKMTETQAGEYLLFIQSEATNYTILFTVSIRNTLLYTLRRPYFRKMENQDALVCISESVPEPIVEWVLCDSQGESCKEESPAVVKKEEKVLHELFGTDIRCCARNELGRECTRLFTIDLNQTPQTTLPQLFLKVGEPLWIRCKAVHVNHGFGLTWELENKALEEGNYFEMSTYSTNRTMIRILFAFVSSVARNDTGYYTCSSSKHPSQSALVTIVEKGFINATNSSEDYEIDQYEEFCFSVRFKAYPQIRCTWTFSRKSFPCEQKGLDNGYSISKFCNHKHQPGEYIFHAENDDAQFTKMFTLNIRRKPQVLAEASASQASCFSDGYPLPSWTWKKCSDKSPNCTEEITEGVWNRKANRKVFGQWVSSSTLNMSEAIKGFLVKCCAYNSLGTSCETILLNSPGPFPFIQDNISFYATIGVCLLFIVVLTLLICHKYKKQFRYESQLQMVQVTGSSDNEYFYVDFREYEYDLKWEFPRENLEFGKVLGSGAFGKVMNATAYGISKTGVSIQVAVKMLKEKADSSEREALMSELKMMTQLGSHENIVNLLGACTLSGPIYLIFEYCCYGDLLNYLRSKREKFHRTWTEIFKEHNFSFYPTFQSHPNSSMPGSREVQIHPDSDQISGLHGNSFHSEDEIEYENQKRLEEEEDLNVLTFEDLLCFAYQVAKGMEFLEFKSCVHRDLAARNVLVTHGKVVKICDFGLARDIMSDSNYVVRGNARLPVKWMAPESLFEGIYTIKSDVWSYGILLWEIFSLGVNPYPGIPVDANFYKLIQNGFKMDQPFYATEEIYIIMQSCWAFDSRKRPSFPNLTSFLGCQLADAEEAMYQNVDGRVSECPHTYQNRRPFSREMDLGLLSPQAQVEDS
Experimental: (§2) Subsequently, the kinase detection reagent was added and incubated for an additional 15 min. Finally, the mixture was incubated for 1 h, and relative luminescence units (RLU) were measured.
(§3) Moreover, we extended the kinase selectivity profiling of FLIN-4 to evaluate its inhibitory activity against 60 non-target kinases.

[20] = system: FLT3-ITD; test: ADP-Glo kinase-inhibition assay; conditions: ratio of IC50 values vs Midostaurin
Experimental: as §2, §3

[21] = target: 60 non-target kinases; test: SelectScreen kinase selectivity profiling, whole panel; conditions: all 60 kinases
Description: as §3

`CCc1nc(C(N)=O)c(Nc2ccc(N3CCC(Nc4ccccc4)CC3)c(OC)c2)nc1NC1CCOC(C(O)CO)C1` (stereo not drawn) [FLIN-4] showed an IC50 [1] greater than 10 µM, an IC50 [2] greater than 10 µM and an IC50 [3] greater than 10 µM. For the same molecule, the IC50 [4] was greater than 10 µM, the IC50 [5] was greater than 10 µM and the IC50 [6] was greater than 10 µM. For the same molecule, the IC50 [7] was greater than 10 µM, the IC50 [8] was greater than 10 µM and the IC50 [9] was greater than 10 µM. The IC50 [10] was greater than 10 µM, the IC50 [11] was greater than 10 µM and the IC50 [12] was greater than 10 µM. It also gave an IC50 [13] greater than 10 µM, an IC50 [14] greater than 10 µM and an IC50 [15] greater than 10 µM. It also gave an IC50 [16] greater than 10 µM, an IC50 [17] greater than 10 µM and an IC50 [18] greater than 10 µM. The IC50 [19] was 0.00107 ± 4e-05 µM, the “FLT3-ITD inhibitory potency relative to Midostaurin” value [20] was “approximately 27 times” and the IC50 [21] was greater than 10 µM.

From article PMC11830721 (Frontiers in Pharmacology, 2025)
